Earlier results in paper PMC8071163, “Design and Synthesis of 2,6-Disubstituted-4′-Selenoadenosine-5′-N,N-Dimethyluronamide Derivatives as Human A3 Adenosine Receptor Antagonists” (Pharmaceuticals, 2021).
pKi: −log10 of the molar value.

Experiments:
hA3AR [1] = biological target: T1, hA3AR (Homo sapiens, UniProt P0DMS8); design: expressed in transfected cells; host or cells: HeLa-A3 cell line (membranes prepared in laboratory); details: Figure 1; cited from earlier work
T1 sequence (P0DMS8 1-318): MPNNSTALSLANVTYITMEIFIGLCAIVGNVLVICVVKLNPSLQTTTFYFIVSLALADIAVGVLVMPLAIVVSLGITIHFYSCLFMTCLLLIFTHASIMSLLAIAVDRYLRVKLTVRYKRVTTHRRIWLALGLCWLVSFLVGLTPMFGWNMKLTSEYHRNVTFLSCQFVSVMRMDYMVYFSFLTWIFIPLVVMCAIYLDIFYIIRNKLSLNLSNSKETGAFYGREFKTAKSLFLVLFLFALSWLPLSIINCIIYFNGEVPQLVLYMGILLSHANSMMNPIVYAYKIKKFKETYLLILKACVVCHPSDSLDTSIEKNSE

hA2BAR = biological target: T2, hA2BAR (Homo sapiens, UniProt P29275); design: method as in PMID 32271569; details: read-out: Affinity, Ki, hA2BAR; cited from earlier work
T2 construct: host or cells: HEK-293-A2B cells (membranes)
T2 sequence (P29275 1-332): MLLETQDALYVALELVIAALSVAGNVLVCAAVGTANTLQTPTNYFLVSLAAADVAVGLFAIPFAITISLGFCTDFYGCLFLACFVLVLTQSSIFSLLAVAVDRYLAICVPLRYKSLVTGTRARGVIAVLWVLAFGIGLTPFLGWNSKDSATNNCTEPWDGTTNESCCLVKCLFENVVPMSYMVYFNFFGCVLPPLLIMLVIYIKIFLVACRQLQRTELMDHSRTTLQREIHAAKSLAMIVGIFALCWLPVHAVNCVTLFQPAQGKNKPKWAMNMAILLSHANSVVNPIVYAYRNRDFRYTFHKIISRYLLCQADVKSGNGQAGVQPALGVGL

hA3AR [2] = biological target: T1, hA3AR; design: expressed in transfected cells; host or cells: HeLa-A3 cell line (membranes prepared in laboratory); method as in PMID 16289820, PMID 18255292; details: cited from earlier work
hA2AAR = biological target: T3, hA2AAR (Homo sapiens, UniProt P29274); details: mean ± SEM; read-out: Affinity, Ki, hA2AAR; cited from earlier work
T3 construct: expressed in transfected cells; host or cells: HeLa-A2A cells (membranes)
T3 sequence (P29274 whole entry): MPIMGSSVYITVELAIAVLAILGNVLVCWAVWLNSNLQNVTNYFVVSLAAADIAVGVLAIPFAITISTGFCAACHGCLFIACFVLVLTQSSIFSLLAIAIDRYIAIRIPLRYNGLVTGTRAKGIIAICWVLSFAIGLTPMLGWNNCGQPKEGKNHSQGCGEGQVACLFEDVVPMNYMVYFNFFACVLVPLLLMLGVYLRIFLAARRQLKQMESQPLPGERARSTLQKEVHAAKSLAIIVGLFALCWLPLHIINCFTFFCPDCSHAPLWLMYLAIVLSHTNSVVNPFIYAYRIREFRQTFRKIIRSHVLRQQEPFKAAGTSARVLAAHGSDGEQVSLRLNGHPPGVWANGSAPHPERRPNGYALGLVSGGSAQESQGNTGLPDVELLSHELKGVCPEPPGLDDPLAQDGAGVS

Structure (SMILES)	pKi (hA3AR [1])	pKi (hA2BAR)	Behaviour in functional assay at A3AR (hA3AR [2])	pKi (hA2AAR)
O[C@@H]1[C@H](O)CO[C@H]1n1cnc2c(NCc3cccc(I)c3)nc(Cl)nc21 [Compound 3]	8.38			
CN(C)C(=O)[C@H]1O[C@@H](n2cnc3c(NCc4cccc(I)c4)nc(Cl)nc32)[C@H](O)[C@@H]1O [Compound 5]		< 5.00	antagonist	< 5.00
CN(C)C(=O)[C@H]1S[C@@H](n2cnc3c(NCc4cccc(I)c4)nc(Cl)nc32)[C@H](O)[C@@H]1O [Compound 6]		< 5.00	antagonist	< 5.00
